Laboratory results taken from the supplement of paper PMC10733146.

What was measured:
Test in all cases: viability relative to DMSO control (fraction); higher = less drug effect (more viable cells)
Conditions in all cases: 48 h
Palbociclib = compound: CC(=O)c1c(C)c2cnc(Nc3ccc(N4CCNCC4)cn3)nc2n(C2CCCC2)c1=O [Palbociclib]
Outline: (§1)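 Cells were incubated for 48 h at 37 °C and 5% CO2 in RPMI-1640 with penicillin/streptomycin, L-glutamine and human serum, at 4 × 10^4 cells per well in 384-well plates with compounds pre-plated at five concentrations, one well each. These were primary mononuclear tumour cells, fresh or cryopreserved, Ficoll-isolated from blood or bone marrow or obtained from processed lymph node. Viability values are CellTiter-Glo luminescence relative to the median of 16 inner DMSO wells.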

Selinexor = compound: O=C(/C=C\n1cnc(-c2cc(C(F)(F)F)cc(C(F)(F)F)c2)n1)NNc1cnccn1 [Selinexor]
Outline: as §1

Barasertib = compound: CCN(CCCOc1ccc2c(Nc3cc(CC(=O)Nc4cccc(F)c4)[nH]n3)ncnc2c1)CCOP(=O)(O)O [Barasertib]
Outline: as §1

Filgotinib = compound: O=C(Nc1nc2cccc(-c3ccc(CN4CCS(=O)(=O)CC4)cc3)n2n1)C1CC1 [Filgotinib]
Outline: as §1

Navitoclax = compound: CC1(C)CCC(c2ccc(Cl)cc2)=C(CN2CCN(c3ccc(C(=O)NS(=O)(=O)c4ccc(N[C@H](CCN5CCOCC5)CSc5ccccc5)c(S(=O)(=O)C(F)(F)F)c4)cc3)CC2)C1 [Navitoclax]
Outline: as §1

EPZ-6438 = compound: CCN(c1cc(-c2ccc(CN3CCOCC3)cc2)cc(C(=O)NCc2c(C)cc(C)[nH]c2=O)c1C)C1CCOCC1 [EPZ-6438]
Outline: as §1

Thalidomide = compound: O=C1CCC(N2C(=O)c3ccccc3C2=O)C(=O)N1 [Thalidomide]
Outline: as §1

CPI-169 = compound: CCS(=O)(=O)N1CCC([C@@H](C)n2c(C)c(C(=O)NCc3c(OC)cc(C)[nH]c3=O)c3ccccc32)CC1 [CPI-169]
Outline: as §1

[1] = compound: O=C(NO)c1cccc(C(=O)NCCc2ccccc2)c1
Outline: as §1

[2] = compound: CCc1ccc(/C=C2/SC(=S)NC2=O)cc1
Outline: as §1

Venetoclax = compound: CC1(C)CCC(CN2CCN(c3ccc(C(=O)NS(=O)(=O)c4ccc(NCC5CCOCC5)c([N+](=O)[O-])c4)c(Oc4cnc5[nH]ccc5c4)c3)CC2)=C(c2ccc(Cl)cc2)C1 [Venetoclax]
Outline: as §1

[3] = compound: C[C@H](NC(=O)CCC(F)(F)F)C(=O)N[C@@H]1C(=O)N(CCO)c2ncccc2-c2ccccc21
Outline: as §1

I-BET-762 = compound: CCNC(=O)C[C@@H]1N=C(c2ccc(Cl)cc2)c2cc(OC)ccc2-n2c(C)nnc21 [I-BET-762]
Outline: as §1

[4] = compound: C[C@H]1C[C@@H](n2c(Nc3ccc(OC(F)(F)F)cc3)nc3cc(CCC(=O)O)ccc32)CC(C)(C)C1
Outline: as §1

primary AML patient cells (S056)
viability (Palbociclib; 0.024 µM): 0.981 | viability (Palbociclib; 0.12 µM): 0.945 | viability (Palbociclib; 0.6 µM): 0.551 | viability (Palbociclib; 3 µM): 0.511 | viability (Palbociclib; 15 µM): 0.169 | viability (Selinexor; 0.008 µM): 0.787 | viability (Selinexor; 0.04 µM): 0.685 | viability (Selinexor; 0.2 µM): 0.5 | viability (Selinexor; 1 µM): 0.435 | viability (Selinexor; 5 µM): 0.324 | viability (Barasertib; 0.0008 µM): 0.82 | viability (Barasertib; 0.004 µM): 1.33 | viability (Barasertib; 0.02 µM): 0.68 | viability (Barasertib; 0.1 µM): 0.551 | viability (Barasertib; 0.5 µM): 0.431 | viability (Filgotinib; 0.024 µM): 1.08 | viability (Filgotinib; 0.12 µM): 0.965 | viability (Filgotinib; 0.6 µM): 0.78 | viability (Filgotinib; 3 µM): 0.376 | viability (Filgotinib; 15 µM): 0.391 | viability (Navitoclax; 0.0032 µM): 0.818 | viability (Navitoclax; 0.016 µM): 0.547 | viability (Navitoclax; 0.08 µM): 0.515 | viability (Navitoclax; 0.4 µM): 0.182 | viability (Navitoclax; 2 µM): 0.0463 | viability (EPZ-6438; 0.024 µM): 1.17 | viability (EPZ-6438; 0.12 µM): 1.17 | viability (EPZ-6438; 0.6 µM): 0.909 | viability (EPZ-6438; 3 µM): 1.09 | viability (EPZ-6438; 15 µM): 0.809 | viability (Thalidomide; 0.032 µM): 0.911 | viability (Thalidomide; 0.16 µM): 0.998 | viability (Thalidomide; 0.8 µM): 0.991 | viability (Thalidomide; 4 µM): 0.809 | viability (Thalidomide; 20 µM): 0.693 | viability (CPI-169; 0.024 µM): 0.887 | viability (CPI-169; 0.12 µM): 0.869 | viability (CPI-169; 0.6 µM): 0.733 | viability (CPI-169; 3 µM): 0.787 | viability (CPI-169; 15 µM): 1.05 | viability ([1]; 0.024 µM): 1.1 | viability ([1]; 0.12 µM): 1.17 | viability ([1]; 0.6 µM): 0.856 | viability ([1]; 3 µM): 0.894 | viability ([1]; 15 µM): 0.596 | viability ([2]; 0.024 µM): 0.77 | viability ([2]; 0.12 µM): 0.689 | viability ([2]; 0.6 µM): 0.789 | viability ([2]; 3 µM): 0.807 | viability ([2]; 15 µM): 0.951 | viability (Venetoclax; 0.00064 µM): 0.907 | viability (Venetoclax; 0.0032 µM): 0.445 | viability (Venetoclax; 0.016 µM): 0.29 | viability (Venetoclax; 0.08 µM): 0.269 | viability (Venetoclax; 0.4 µM): 0.0674 | viability ([3]; 0.016 µM): 1.04 | viability ([3]; 0.08 µM): 0.994 | viability ([3]; 0.4 µM): 0.979 | viability ([3]; 2 µM): 1.55 | viability ([3]; 10 µM): 0.983 | viability (I-BET-762; 0.008 µM): 0.739 | viability (I-BET-762; 0.04 µM): 0.991 | viability (I-BET-762; 0.2 µM): 0.927 | viability (I-BET-762; 1 µM): 0.461 | viability (I-BET-762; 5 µM): 0.201 | viability ([4]; 0.024 µM): 0.631 | viability ([4]; 0.12 µM): 0.802 | viability ([4]; 0.6 µM): 0.722 | viability ([4]; 3 µM): 0.722 | viability ([4]; 15 µM): 0.702

primary B-PLL patient cells (S016)
viability (Palbociclib; 0.024 µM): 0.982 | viability (Palbociclib; 0.12 µM): 0.886 | viability (Palbociclib; 0.6 µM): 0.89 | viability (Palbociclib; 3 µM): 0.625 | viability (Palbociclib; 15 µM): 0.457 | viability (Selinexor; 0.008 µM): 0.949 | viability (Selinexor; 0.04 µM): 0.929 | viability (Selinexor; 0.2 µM): 0.822 | viability (Selinexor; 1 µM): 0.847 | viability (Selinexor; 5 µM): 0.67 | viability (Barasertib; 0.0008 µM): 0.883 | viability (Barasertib; 0.004 µM): 0.984 | viability (Barasertib; 0.02 µM): 0.962 | viability (Barasertib; 0.1 µM): 1.01 | viability (Barasertib; 0.5 µM): 1.03 | viability (Filgotinib; 0.024 µM): 0.977 | viability (Filgotinib; 0.12 µM): 1 | viability (Filgotinib; 0.6 µM): 0.977 | viability (Filgotinib; 3 µM): 1.2 | viability (Filgotinib; 15 µM): 0.221 | viability (Navitoclax; 0.0032 µM): 1.16 | viability (Navitoclax; 0.016 µM): 1.14 | viability (Navitoclax; 0.08 µM): 0.767 | viability (Navitoclax; 0.4 µM): 0.158 | viability (Navitoclax; 2 µM): 0.0503 | viability (EPZ-6438; 0.024 µM): 1.21 | viability (EPZ-6438; 0.12 µM): 1.14 | viability (EPZ-6438; 0.6 µM): 1.1 | viability (EPZ-6438; 3 µM): 1.01 | viability (EPZ-6438; 15 µM): 1.06 | viability (Thalidomide; 0.032 µM): 0.947 | viability (Thalidomide; 0.16 µM): 0.931 | viability (Thalidomide; 0.8 µM): 1.04 | viability (Thalidomide; 4 µM): 1.05 | viability (Thalidomide; 20 µM): 1.04 | viability (CPI-169; 0.024 µM): 0.946 | viability (CPI-169; 0.12 µM): 1.02 | viability (CPI-169; 0.6 µM): 1.04 | viability (CPI-169; 3 µM): 1.01 | viability (CPI-169; 15 µM): 1.2 | viability ([1]; 0.024 µM): 1.07 | viability ([1]; 0.12 µM): 1.03 | viability ([1]; 0.6 µM): 0.986 | viability ([1]; 3 µM): 1.05 | viability ([1]; 15 µM): 0.896 | viability ([2]; 0.024 µM): 0.982 | viability ([2]; 0.12 µM): 0.922 | viability ([2]; 0.6 µM): 1.1 | viability ([2]; 3 µM): 0.971 | viability ([2]; 15 µM): 0.963 | viability (Venetoclax; 0.00064 µM): 0.981 | viability (Venetoclax; 0.0032 µM): 0.834 | viability (Venetoclax; 0.016 µM): 0.362 | viability (Venetoclax; 0.08 µM): 0.126 | viability (Venetoclax; 0.4 µM): 0.0603 | viability ([3]; 0.016 µM): 1.29 | viability ([3]; 0.08 µM): 1.24 | viability ([3]; 0.4 µM): 1.09 | viability ([3]; 2 µM): 1.08 | viability ([3]; 10 µM): 0.949 | viability (I-BET-762; 0.008 µM): 1.01 | viability (I-BET-762; 0.04 µM): 0.976 | viability (I-BET-762; 0.2 µM): 0.992 | viability (I-BET-762; 1 µM): 0.918 | viability (I-BET-762; 5 µM): 0.639 | viability ([4]; 0.024 µM): 0.932 | viability ([4]; 0.12 µM): 1.22 | viability ([4]; 0.6 µM): 1.08 | viability ([4]; 3 µM): 0.967 | viability ([4]; 15 µM): 1.03

primary AML patient cells (S002)
viability (Palbociclib; 0.024 µM): 1.04 | viability (Palbociclib; 0.12 µM): 0.965 | viability (Palbociclib; 0.6 µM): 0.956 | viability (Palbociclib; 3 µM): 0.966 | viability (Palbociclib; 15 µM): 0.542 | viability (Selinexor; 0.008 µM): 0.831 | viability (Selinexor; 0.04 µM): 0.679 | viability (Selinexor; 0.2 µM): 0.584 | viability (Selinexor; 1 µM): 0.375 | viability (Selinexor; 5 µM): 0.332 | viability (Barasertib; 0.0008 µM): 0.856 | viability (Barasertib; 0.004 µM): 0.855 | viability (Barasertib; 0.02 µM): 0.834 | viability (Barasertib; 0.1 µM): 0.904 | viability (Barasertib; 0.5 µM): 0.848 | viability (Filgotinib; 0.024 µM): 1.16 | viability (Filgotinib; 0.12 µM): 1.01 | viability (Filgotinib; 0.6 µM): 0.926 | viability (Filgotinib; 3 µM): 0.758 | viability (Filgotinib; 15 µM): 0.405 | viability (Navitoclax; 0.0032 µM): 1.18 | viability (Navitoclax; 0.016 µM): 0.577 | viability (Navitoclax; 0.08 µM): 0.305 | viability (Navitoclax; 0.4 µM): 0.0634 | viability (Navitoclax; 2 µM): 0.0337 | viability (EPZ-6438; 0.024 µM): 1.18 | viability (EPZ-6438; 0.12 µM): 1.05 | viability (EPZ-6438; 0.6 µM): 0.999 | viability (EPZ-6438; 3 µM): 0.991 | viability (EPZ-6438; 15 µM): 0.884 | viability (Thalidomide; 0.032 µM): 1.03 | viability (Thalidomide; 0.16 µM): 0.935 | viability (Thalidomide; 0.8 µM): 0.93 | viability (Thalidomide; 4 µM): 0.927 | viability (Thalidomide; 20 µM): 0.912 | viability (CPI-169; 0.024 µM): 1.12 | viability (CPI-169; 0.12 µM): 0.923 | viability (CPI-169; 0.6 µM): 0.962 | viability (CPI-169; 3 µM): 0.967 | viability (CPI-169; 15 µM): 0.785 | viability ([1]; 0.024 µM): 0.965 | viability ([1]; 0.12 µM): 1.46 | viability ([1]; 0.6 µM): 1.09 | viability ([1]; 3 µM): 1.04 | viability ([1]; 15 µM): 1.13 | viability ([2]; 0.024 µM): 0.882 | viability ([2]; 0.12 µM): 0.758 | viability ([2]; 0.6 µM): 1.04 | viability ([2]; 3 µM): 0.727 | viability ([2]; 15 µM): 0.673 | viability (Venetoclax; 0.00064 µM): 0.979 | viability (Venetoclax; 0.0032 µM): 0.955 | viability (Venetoclax; 0.016 µM): 0.678 | viability (Venetoclax; 0.08 µM): 0.667 | viability (Venetoclax; 0.4 µM): 0.537 | viability ([3]; 0.016 µM): 0.907 | viability ([3]; 0.08 µM): 0.892 | viability ([3]; 0.4 µM): 0.942 | viability ([3]; 2 µM): 0.934 | viability ([3]; 10 µM): 0.823 | viability (I-BET-762; 0.008 µM): 0.876 | viability (I-BET-762; 0.04 µM): 0.899 | viability (I-BET-762; 0.2 µM): 0.662 | viability (I-BET-762; 1 µM): 0.412 | viability (I-BET-762; 5 µM): 0.352 | viability ([4]; 0.024 µM): 0.913 | viability ([4]; 0.12 µM): 0.893 | viability ([4]; 0.6 µM): 0.859 | viability ([4]; 3 µM): 0.876 | viability ([4]; 15 µM): 0.832
